Key:
[1] = system: castration-resistant LNCaP/AR-Luc xenograft model; settings: non-castrate hormone-sensitive and bicalutamide-resistant models (Clegg et al.); cited from earlier work
[2] = Preclinical pharmacokinetic profile; type: in vivo
[3] = system: LNCaP/AR cells; settings: literature; cited from earlier work
[4] = In vivo rat (bone marrow) micronucleus assay
[5] = system: T1, major CYP isoforms other than CYP2C8; assay: Cytochrome P450 inhibition: major isoforms; type: in vitro ADME; settings: human; the other major isoforms (other than CYP2C8)
T1 construct: IC50; other: the other major isoforms (other than CYP2C8)

[6] = in vivo; settings: dog
Text: Single-dose and repeat-dose toxicology studies up to 13 weeks of dosing have been conducted in male Sprague Dawley (SD) rats and male Beagle dogs (repeat-dose studies only).

[7] = target: T2, human cytochrome P450 isoform CYP2C8 (Homo sapiens, UniProt P10632); assay: Cytochrome P450 inhibition: CYP2C8; type: in vitro ADME
T2 sequence (P10632 1-490): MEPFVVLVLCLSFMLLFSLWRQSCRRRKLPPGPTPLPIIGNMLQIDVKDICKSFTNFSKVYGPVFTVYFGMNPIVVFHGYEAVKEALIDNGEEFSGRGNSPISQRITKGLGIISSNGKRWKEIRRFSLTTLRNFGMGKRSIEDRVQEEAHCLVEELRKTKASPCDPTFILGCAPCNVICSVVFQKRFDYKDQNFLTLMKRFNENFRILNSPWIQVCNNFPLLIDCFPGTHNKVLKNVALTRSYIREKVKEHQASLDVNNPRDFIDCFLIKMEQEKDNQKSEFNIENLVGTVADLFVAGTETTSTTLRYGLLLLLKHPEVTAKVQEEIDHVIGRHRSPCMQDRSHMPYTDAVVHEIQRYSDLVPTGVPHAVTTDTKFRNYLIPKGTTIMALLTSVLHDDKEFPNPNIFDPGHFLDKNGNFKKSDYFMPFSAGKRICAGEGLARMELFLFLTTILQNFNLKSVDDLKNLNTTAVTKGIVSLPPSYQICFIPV

[8] = system: castration-resistant LNCaP/AR-Luc xenograft model; assay: Murine tumor (xenograft) models of CRPC; type: in vivo; settings: for tumor cell proliferation and apoptosis in vivo: CRPC / mouse xenograft models of prostate cancer
[9] = system: CYP2C9, CYP2C19, and CYP3A4; assay: In vitro CYP inhibition: CYP2C9, CYP2C19, CYP3A4
[10] = Clinical pharmacokinetics (population PK analysis); settings: for dose dependence of exposure (Cmax and AUC): repeat once-daily dosing, 30 to 480 mg

CNC(=O)c1ccc(N2C(=S)N(c3cnc(C#N)c(C(F)(F)F)c3)C(=O)C23CCC3)cc1F [apalutamide, 4-[7-(6-cyano-5-trifluoromethylpyridin-3-yl)-8-oxo-6-thioxo-5,7-diazaspiro[3.4]oct-5-yl]-2-fluoro-N-methylbenzamide]
tumor regression in human prostate cancer xenograft models [1]: partial or complete tumor regression
clearance ([2]; preclinical): low clearance
volume of distribution ([2]; preclinical): moderate volume of distribution
bioavailability ([2]; when dosed with a lipid-based formulation): high bioavailability
agonist activity in the context of AR overexpression [3]: lacks the partial agonist activity
genotoxicity, in vivo rat micronucleus assay [4]: not genotoxic
IC50 [5]: > 25 µM
increases in cholesterol compared to controls [6]: up to 50%
NOAEL at 13 weeks ([6]; male, Beagle): 5 mg/kg/day
NOAEL at 28 days ([6]; male, Beagle): 10 mg/kg/day
dose at which seizures necessitating humane euthanasia occurred ([6]; male, Beagle): ≥ 25 mg/kg/day
dose with reproductive system findings ([6]; male, Beagle): > 2.5 mg/kg/day
AUC(0-t) ([6]; male, Beagle, 10 mg/kg/day): 290 µg·h/mL
Cmax ([6]; male, Beagle, 10 mg/kg/day): 13200 ng/mL
IC50 [7]: 13.9 µM
tumor cell proliferation and apoptosis in vivo [8]: reduce proliferation of CRPC cells as well as increase apoptosis and necrosis
tumor cell proliferation and apoptosis in vivo ([8]; listed as Apalutamide): decreased tumor cell proliferation and increased apoptosis leading to decreased tumor volume
tumor growth inhibition and tumor regression ([8]; murine tumor models of CRPC): dose-dependent tumor growth inhibition and tumor regression that were superior to bicalutamide
inhibition of CYP2C9, CYP2C19, and CYP3A4 [9]: weak inhibitors
time to steady state ([10]; 240 mg once daily): 4 weeks
CL/F ([10]; after single dosing): 1.3 L/h
CL/F ([10]; at steady-state after once-daily dosing): 2.0 L/h
changes in Cmax and AUC with food ([10]; high-fat meal vs fasting, healthy subjects): no clinically relevant changes
Tmax ([10]; human, plasma, po): 2 h
bioavailability ([10]; human, plasma, po): ~100%
differences in pharmacokinetics in specific populations ([10]; mild or moderate renal impairment, mild or moderate hepatic impairment, age 18 to 94 years, race): No clinically significant differences
dose dependence of exposure (Cmax and AUC) [10]: dose-proportional
dose dependence of exposure (Cmax and AUC) ([10]; listed as Apalutamide): increased proportionally

Reference: patent US11160796B2, “Anti-androgens for the treatment of non-metastatic castration-resistant prostate cancer” (priority 2017, dated 2021)
